Values of other authors as cited in patent US9744192B2, “Methods of treating chronic rhinosinusitis” (priority 2015, dated 2017).
Read-outs that look alike come from different tables or passages of the source.

How the values were obtained:
[1] = aqueous solution, pH=7.4
Candida albicans = conditions: for strains with complete growth inhibition: 1% aqueous boric acid
[2] = test system: 17 bacteria and fungi (human pathogens)
[3] = test system: 17 bacterial strains including Staphylococcus aureus, Enterococcus faecalis, E. coli, Klebsiella pneumonia and others; conditions: 2.5% boric acid
[4] = test system: Saccharomyces cerevisiae cells; conditions: living cells
[5] = test system: Bacillus shiga-kruse (aka: Shigella dysenteriae); conditions: 2-3% aqueous boric acid, agar culture

## OB(O)O [boric acid, Boric acid]
In vivo
  tissue irritation or other adverse events: little or no evidence
topical
  absorption across uninjured skin or vaginal epithelium: not significantly absorbed
[1]
  borate B(OH)4− share of equilibrium: 1.6%
  free boric acid B(OH)3 share of equilibrium: 98.4%
Candida albicans; fluconazole-resistant strains
  strains with complete growth inhibition: 24 of the 25
Candida albicans; fluconazole-susceptible strains
  strains with complete growth inhibition: 45 of the 46
Candida albicans; 1% boric acid
  sudden physical membrane damage: No sign of sudden physical membrane damage
Candida albicans; 24 hour exposure to 1% boric acid
  membrane integrity: decreased only slightly
[2]; boric acid 1.8-2%, urine samples, up to 24 hours at 24° C.
  integrity of initial bacterial or fungal counts: maintained for all human pathogens studied
[2]; preserved samples diluted out
  reversibility of the bacteriostatic effect after dilution into nutrient culture media: rapid and complete reversibility
[3]
  bacterial strains with complete growth inhibition: 17 of 17
[4]
  effect on cell morphology: alter the morphology
[5]
  agglutination: marked agglutination
